# Source: US4933330A, “Benzoic acid derivatives and use thereof” (priority 1987, dated 1990)
# Key:
# [1] = tested on: psoriasis and contact dermatitis; experiment: Conclusion of clinical testing (psoriasis and contact dermatitis); type: in vivo, patients; details: active formulations
# Procedure: 1. Patients with wide-spread psoriasis receiving systemic treatment with methotrexate, retinoids or topical treatment with dithranol or tar-preparations. An area of 5×5 cm^2 was used for treatment with compositions 1, 2 and 3 in an increasing concentration. A total of 5 patients were treated on in-patient basis, and the results were evaluated 2-3 times a week.
# 2. In 3 out of 5 other patients treated with 5-ASA cream under occulsion with a thin plastic film a dramatic effect was seen after 4-6 days.
# 3. 5% 5-ASA cream and placebo cream was compared in a randomized, double-blind, bilaterial trial with 5 psoriatic in-patients. Two contralateral psoriasis plaques of the same severity were treated for one week with the 5-ASA cream and placebo cream, respectively, with the concomitant use of an occulsive dressing.
# 4. 5% 4-ASA cream and placebo cream were compared in a randomized, double blind, bilateral trial with 10 psoriasis out-patients. […]
# Ten patients with known nickel allergy and 15 patients with known allergy to other compounds were tested with 5% 5-ASA cream and placebo cream in a randomized, double blind, bilateral trial. […] The study areas were occluded with Finn chambers for 48 hours, and the patients' symptoms were recorded. After 72 hours, the patch test reactions were evaluated and the patients' symptoms recorded.
# psoriasis plaques = experiment: Randomized, bilateral trial of 5% 5-ASA cream vs placebo, 48 psoriasis patients; type: in vivo
# Procedure: Objective: To compare 5% 5-ASA cream with placebo cream in psoriasis patients.
# 5% 5-ASA cream and placebo cream were compared in a randomized, bilateral trial with 48 psoriasis patients (24 hospitalized and 24 out-patients). Two contralateral psoriasis plaques (5×5 cm^2 -10×10 cm^2) of the same severity were treated 3 times daily for two weeks (occulsion at night) with the 5-ASA and placebo creams, respectively.
# Any reported adverse reactions were noted.
# The differences between the "active side" (treated with 5-ASA) and the "placebo side" were statistically tested by a binomial distribution test.
# [2] = tested on: allergy to other compounds; experiment: Contact dermatitis/allergy test, patients with allergy to other compounds; type: in vivo; details: 5% 5-ASA cream vs placebo
# Procedure: (§1) Ten patients with known nickel allergy and 15 patients with known allergy to other compounds were tested with 5% 5-ASA cream and placebo cream in a randomized, double blind, bilateral trial. The allergen was applied on two 1×1 cm^2 areas and the study creams were then applied on the left and right 2×2 cm^2 study areas, respectively. The study areas were occluded with Finn chambers for 48 hours, and the patients' symptoms were recorded. After 72 hours, the patch test reactions were evaluated and the patients' symptoms recorded.
# rat = details: intravenously; cited from earlier work
# [3] = In vitro dermal absorption in Franz Diffusion cells; type: in vitro ADME, human; details: for Absorbed amounts, 5-ASA versus prodrug No. 350 / Detection of unchanged prodrug after penetration of the skin / Production of 5-ASA in free form after absorption: human skin in vitro
# Procedure: Franz Diffusion cells (FDC) are systems for the measurements of percutaneous absorption by the finite dose technique. Human skin is mounted in specially constructed diffusion chambers (FDC), and the skin is batched from below by a reservoir solution. 3×10 μl solution (1 mg/ml) of the following compounds were applied to human skin in Franz diffusion cells (0.636 cm^2) and kept at 37° C. by thermostatic control: Compound 1=5-ASA […] Samples were taken from the reservoir at intervals for 76 hours and analyzed by HPLC for 5-ASA and the prodrugs themselves.
# nickel allergy = experiment: Contact dermatitis/allergy test, patients with nickel allergy; type: in vivo; details: 5% 5-ASA cream vs placebo; after 72 hours
# Procedure: as §1
# [4] = In vivo dermal absorption of 5-ASA (serum and urine) in healthy volunteers
# Procedure: Serum concentrations and the amount excreted in urine of 5-ASA and the 5-ASA metabolite: […] The study was performed as an open study, divided into the following parts: Part I: 2 volunteers, normal skin, single dose. Part IA: 1 volunteer, stripped skin and 1 volunteer, normal skin and occlusion, single dose. Part IB: 1 volunteer, stripped skin and occlusion, single dose. Part II: 6 volunteers, stripped skin day 1, and occlusion day 1 and day 8, multiple doses. Part I, IA and IB: 0.5 g 5% 5-ASA cream was applied to one forearm of the volunteer and blood samples were taken at intervals for 6 hours from both arms. 24 hour urine samples were collected. […] Blood and urine were collected as described above on day 1 and 8. […] Clinical chemistry tests showing the state of the patient (blood status, liver and kidney function, etc.) were performed before and after the study.
# [5] = chronic inflammatory bowel disease; cited from earlier work
# [6] = In vivo absorption of 4-ASA (serum and urine) in healthy volunteers; details: for Highest serum levels recalculated to treatment of the whole body, passive and active side: versus 4-ASA perorally in tuberculosis treatment
# [7] = % of dose through the skin during 76 hours, 3×10 μl of 1 mg/ml, 37° C.
# [8] = human, in vivo, topical or ocular
# [9] = human, serum, topical or ocular, 25 mg
compound,measurement,setting,value
"Nc1ccc(O)c(C(=O)O)c1 [Example 5-ASA, 5-aminosalicylic acid, reference compound]",Efficacy vs placebo in comparative trials,[1],more efficient than placebo
same,Effect compared to placebo (conclusion),psoriasis plaques,A significant effect
same,Preference of patients vs placebo,[2],about twice as many patients preferred the 5-ASA treatment in comparison with placebo
same,Nephrotoxic dose,rat,300 to 900 mg/kg
same,"% absorbed, compound measured: 5-ASA",[3]; [7],7.8-15.6%
same,"Absorbed amounts, 5-ASA versus prodrug No. 350",[3],of the same size
same,Patients showing no difference regarding pruritus,nickel allergy,two
same,Patients with preference to 5-ASA regarding pruritus,nickel allergy,Seven out of 10
same,"Patients with preference to 5-ASA side, investigator's opinion and patch tests",nickel allergy,9 out of 10
same,Absorption through normal skin,"[4]; 5% 5-ASA cream, normal skin",No absorption through normal skin was detected
same,Absorption through occluded skin,"[4]; 5% 5-ASA cream, occluded skin, late",Small amounts
same,Absorption through both stripped and occluded skin,"[4]; 5% 5-ASA cream, stripped and occluded skin",larger amounts
same,Absorption through stripped skin,"[4]; 5% 5-ASA cream, stripped skin, early",Small amounts
same,"Maximum serum concentration recalculated to treatment of the whole body, active side","[4]; human, in vivo",2-3 times the values reported in studies with SASP
same,"Maximum serum concentration recalculated to treatment of the whole body, passive side","[4]; human, in vivo",within the values reported in studies with salazosulphapyridine (SASP)
same,concentration at 0.25 h,[4]; [8],0.0194 µg/mL
same,concentration at 0.5 h,[4]; [8],0.0083 µg/mL
same,concentration at 0.75 h,[4]; [8],0.0073 µg/mL
same,concentration at 1 h,[4]; [8],0.0082 µg/mL
same,concentration at 1.5 h,[4]; [8],0.0071 µg/mL
same,concentration at 2 h,[4]; [8],0.0039 µg/mL
same,concentration at 4 h,[4]; [8],0.0172 µg/mL
same,concentration at 6 h,[4]; [8],0.0229 µg/mL
Nc1ccc(S(=O)(=O)Nc2ccccn2)cc1 [Sulphapyridine],Side effects after treatment with salazosulphapyridine,[5],responsible for the side effects reported after treatment with salazosulphapyridine
"CC(=O)Nc1ccc(C(=O)O)c(O)c1 [Ac-4-ASA, N-acetyl-4-aminosalicylic acid]","Highest serum levels recalculated to treatment of the whole body, passive and active side",[6],within the values reported after use of 4-ASA perorally in tuberculosis treatment
same,Amount in urine,[6]; versus peroral administration,very small amounts in urine
"CC(=O)Nc1ccc(O)c(C(=O)O)c1 [Ac-5-ASA, 2-Hydroxy-5-acetamidobenzoic acid]",Amount in urine versus peroral or rectal administration,"[4]; human, in vivo",much lower in percentages than after peroral or rectal administration
same,"Maximum serum concentration recalculated to treatment of the whole body, active side","[4]; human, in vivo",2-3 times the values reported in studies with SASP
same,"Maximum serum concentration recalculated to treatment of the whole body, passive side","[4]; human, in vivo",within the values reported in studies with salazosulphapyridine (SASP)
same,Recovery in urine,"[4]; human, in vivo",Only Ac-5-ASA were recovered in urine
same,Median serum concentration,"[4]; human, in vivo, topical or ocular, 0.25 h",13.5 ng/mL
same,Median serum concentration,"[4]; human, in vivo, topical or ocular, 0.5 h",7.0 ng/mL
same,Median serum concentration,"[4]; human, in vivo, topical or ocular, 0.75 h",10.3 ng/mL
same,Median serum concentration,"[4]; human, in vivo, topical or ocular, 1.5 h",14.6 ng/mL
same,Median serum concentration,"[4]; human, in vivo, topical or ocular, 3 h",8.2 ng/mL
"CCOC(=O)c1cc(N)ccc1O [Prodrug No. 345, Ethyl 2-hydroxy-5-aminobenzoate]","% absorbed, compound measured: 5-ASA",[3]; [7],18.2-24.0%
same,"% absorbed, compound measured: prodrug itself",[3]; [7],36.1-45.4%
same,"Enhanced absorption, % of the dose","[3]; as much as, 76 hours",≤ 70 % of the dose
same,Detection of unchanged prodrug after penetration of the skin,[3],detected unchanged after penetration of the skin
same,Production of 5-ASA in free form after absorption,[3],could produce 5-ASA in free form after absorption through human skin in vitro
"CCOC(=O)c1cc(N)ccc1OC(C)=O [Prodrug No. 350, Ethyl 2-acetoxy-5-aminobenzoate]","% absorbed, compound measured: 5-ASA",[3]; [7],11.9-16.8%
same,"Absorbed amounts, 5-ASA versus prodrug No. 350",[3],of the same size
same,Detection of unchanged prodrug after penetration of the skin,[3],could not be detected unchanged
same,Production of 5-ASA in free form after absorption,[3],could produce 5-ASA in free form after absorption through human skin in vitro
"Nc1ccc(C(=O)O)c(O)c1 [Example 4-ASA, 4-aminosalicylic acid]",Efficacy vs placebo in comparative trials,[1],more efficient than placebo
same,concentration at 0.25 h,[6]; [9],0.024 µg/mL
same,concentration at 0.5 h,[6]; [9],0.043 µg/mL
same,concentration at 1.5 h,[6]; [9],0.016 µg/mL
same,"Highest serum levels recalculated to treatment of the whole body, passive and active side",[6],within the values reported after use of 4-ASA perorally in tuberculosis treatment
